In assay [1] the test system is HSV-2. Kind of assay: Transmission electron microscopy of HSV-2 infected Vero cells, location of virus particles. The assay is classed as cell-based, Herpes simplex virus-2(A/B-G). The note with it: 24 h, 80 cells. The method, then: Cellular location of tenatoprazole inhibition. We next imaged herpesvirus infected-Vero cells using transmission electron microscopy to determine the site of inhibition of release of virus and whether it was similar to observations of HIV-1 release from 293T cells. Vero cells grown on glass cover slips were infected with HSV-2 at MOI of 0.1 pfu/cell for 2 h and then treated for 24 h with 105 μM tenatoprazole or vehicle control. In the no drug control, virus particles were in both the nucleus and cytoplasm near the cell surface (FIG. 2A). In the tenatoprazole-treated cells the cytosol of all of the intact cells was largely devoid of virus particles (FIG. 2B). Instead, we observed large pockets of granular material accumulated in the nucleus and immature virus particles inside the nucleus and lining the inside of the nuclear membrane (inset, B).
We next carried out a transmission electron microscopic examination of cells infected with HSV-2 at a MOI 0.1 in the presence and absence of 18 μM ilaprazole to determine if this drug causes the accumulation of virus particles in the nucleus of cells similar to tenatoprazole. Without drug, we observe particles in the cytoplasm and in the nucleus (FIGS. 4A & B), in the presence of drug little or no viral particles are found in the cytoplasm (FIGS. 4C & D). In both heavily infected cells (FIGS. 4A & C) and mildly infected cells (FIGS. 4B & D), treatment lead to particles being detected in the nucleus and arrayed along the nuclear membrane but lacking in the cytosol. […] Similar results were obtained with HSV-1 infected cells (FIG. 4E-H). Particles are seen in both the cytoplasm and nucleus in the absence of drug and just in the nucleus in the presence of drug. […] The lower total infectious virus detected in Table 3 (FIG. 7) is consistent with blockage of the virus passaging out of the nucleus into the cytoplasm where membranes are exchanged and virus becomes infectious.
Transmission electron Microscopy. Vero cells on glass cover slips were infected with HSV-2 at a MOI of 0.1 for two hours. Then 105 μM of tenatoprazole or 18 μM Ilaprazole was added and cells incubated for 24 hours. Tissue samples were fixed in 0.1 M sodium cacodylate buffer pH 7.3 containing 2% paraformaldehyde and 2.5% glutaraldehyde and post-fixed with 2% osmium tetroxide in unbuffered aqueous solution. The samples were rinsed with distilled water, en bloc stained with 3% uranyl acetate, rinsed with distilled water, dehydrated in ascending grades of ethanol, transitioned with propylene oxide, embedded in the resin mixture of Embed 812 kit and cured in a 60° C. oven. Samples were sectioned on a Leica Ultracut UC6 ultramicrotome. 1 μm thick sections were collected and stained with Toluidine Blue O and 70 nm sections were collected on 200 mesh copper grids; thin sections were stained with uranyl acetate and Reynolds lead citrate. Transmission electron microscopy (TEM) was performed on a FEI Tecnai Spirit G2.

The subject of assay [2] is HSV-2. Description: Release of HSV-2 from infected Vero cells, plaque assay. The settings on record: for EC50: Human alphaherpesvirus 2, MOI 0.1, 24 h, read-out: EC50, inhibition of HSV-2 release; for Total infectious virus (released plus inside cells), HSV-2: 24 h, freeze/thaw lysate. The assay is classed as cell-based, Herpes simplex virus-2(A/B-G). Here is the method:
(§1) We infected Vero cells with HSV-1 and HSV-2 for two hours at a multiplicity of infection (MOI in pfu\cell) of 0.1 to assay the antiviral activity of tenatoprazole. Following infection, cells were treated with different concentrations of tenatoprazole. After 24 or 48 h the media fractions were collected and released virus titers were determined by standard plaque assays (30). Tenatoprazole caused a 3-log drop of HSV-1 and 4-5 log drop of HSV-2 in released infectious virus from Vero cells at 24 hours after infection in a dose dependent manner (Table 1, shown in FIG. 5, columns 2 and 3) with calculated EC50's ranging from 48-80 μM. Total virus titer was also determined to differentiate between virus released into the media and infectious particles present in cell lysate. […] The concentrations of tenatoprazole that blocked virus release were nontoxic to Vero cells as determined by a 96® AQueous One Solution cell proliferation assay reagent (Table 1, shown in FIG. 5, column 7). Taken together, tenatoprazole inhibited levels of both released and infectious virus particles without affecting cell viability at effective concentrations.
To examine the effects of the compounds on the release of HSV-2 from Vero cells, we infected the cells with virus two hours prior to treatment with media containing different concentrations of compound. We incubated the cells for 24 or 48 hours and then collected the cell media fractions.
(§2) Herpesvirus infection of Vero cells. Vero cells (0.8×10^6 cells/well of a 6-well plate) were infected with HSV-1 or HSV-2 at a MOI of 0.1 pfu/cell in DMEM with 1% serum for two hours in the C02 incubator at 37° C. In one experiment looking at the effect of tenatoprazole on HSV-2 release from cells 24 and 48 h a MOI of 3 pfu/cell was used. The cell supernatants were aspirated and replaced with 1 ml (24 h) or 2 ml (48 h and 72 h) of DMEM with 1% serum with DMSO or different concentrations of drug (tenatoprazole, ilaprazole, or analogs) dissolved in DMSO. After 24 or 48 h incubation, the cell supernatant was collected and frozen at −80° C. Virus titer in the cell media fraction was determined by standard plaque assays using 10-fold serial dilutions of cell supernatants of Vero cells and incubated for 48 h after which cells were fixed and stained to count the plaques (22). For determination of total virus (extracellular+cytoplasmic), virus infected cells were incubated for 24 h with and without drug presence, then the plate of cells were subjected to 3 cycles of freeze/thawing (−80° C./37° C.) 30 min each prior to collecting the supernatant after centrifugation for measurement of total virus titer. Virus titer was measured by standard plaque assay as above.
(§3) Drug potency and cell toxicity. EC50 calculations were determined by using AAT Bioquest's EC50 calculator. Cell toxicity at different concentrations of drugs as indicated was determine using the Cell Proliferation Reagent WST-1 (Roche Diagnostics) or cellular 96® Aqueous One Reagent viability reagent according to manufacturer's instructions. For 293T cells, the concentration of DMSO was 0.2% or less and assays were carried out with DMEM with 10% serum. Cell toxicity experiments were repeated twice.

The next assay deals with HSV-1. Description: Release of HSV-1 from infected Vero cells, plaque assay. The assay is classed as cell-based, Herpes simplex virus-1 (Kos strain). The note with it: for EC50: Human alphaherpesvirus 1; for Duration of inhibition of HSV-1 release after a single application: data not shown. The method, then: as §1, §2, §3
Setting [3] is: Vero cells, MOI 0.1, 24 h, read-out: EC50, inhibition of HSV-1 release.
Setting [4] is: Vero cells, 24 hours after infection, dose dependent.

Like-named read-outs stand apart in the source and are kept apart here.

Data on 2 compounds can be found in patent US11666562B2, “Ilaprazole for inhibiting the release of enveloped viruses from cells” (Northwestern University, priority 2020, dated 2023).

Regarding `COc1ccnc(C[S+]([O-])c2nc3ccc(-n4cccc4)cc3[nH]2)c1C` (stereo not shown) [Ilaprazole, 2-[(4-methoxy-3-methylpyridin-2-yl)methylsulfinyl]-6-pyrrol-1-yl-1H-benzimidazole], in the assay with HSV-2 [1] (HSV-2, 18 μM ilaprazole), the “Average number of virus particles in the nucleus” value is reported as 31 particles, the “Range of number of virus particles in the nucleus” value is 9-56 particles and the “Virus particles in the cytoplasm” value was 0 particles. In the assay with HSV-2 [2] (Vero cells), the EC50 fell in the range of 3 to 9 µM and the “Total infectious virus (released plus inside cells), HSV-2” value is given as “significant drop in total virus”. In addition, the “Anti-HSV-2 activity (release from Vero cells), in words” value with HSV-2 [2] (Table 2, 24 h) is reported as “potent antiviral activity”. For the same compound, the EC50 in the assay with HSV-1 (Vero cells, 72 h after a single application (Table 3A columns 2 & 4, HSV-1), read-out: 72 h EC50, inhibition of virus release) was 0.8 to 1.2 µM. The EC50 in the assay with HSV-1 (setting [3]) lay within 3 to 9 µM. Moreover, the “Total infectious virus (released plus inside cells), HSV-1” value in the assay with HSV-1 (Vero cells, freeze/thaw lysate) was “significant drop in total virus”. For the same compound, the “Duration of inhibition of HSV-1 release after a single application” value in the assay on HSV-1 is “Significant inhibition was still observed at 4 and 5 days”.
For `COc1ccc2[nH]c([S+]([O-])Cc3ncc(C)c(OC)c3C)nc2n1` (stereo not shown) [Tenatoprazole], in the assay on HSV-2 [1] (HSV-2, 105 μM tenatoprazole), the “Average number of virus particles in the nucleus” value was found to be 31 particles and the “Virus particles in the cytoplasm” value is “did not detect virus particles”. In addition, in the assay with HSV-2 [2] (Vero cells), the EC50 lay within 48 to 80 µM and the “Total infectious virus (released plus inside cells), HSV-2” value is “reduced by tenatoprazole, but not as strongly as virus released into the media”. In the assay with HSV-2 [2] (setting [4]), the “Drop in released infectious HSV-2” value is 4-5 log. Moreover, the “Duration of inhibition of HSV-2 release after a single application” value in the assay on HSV-2 [2] (data not shown) is reported as “began to fall off after 48 h”. Besides, the EC50 with HSV-1 (setting [3]) lay in the range of 48 to 80 µM. In addition, the “Drop in released infectious HSV-1” value in the assay with HSV-1 (setting [4]) came out at 3 log. The “Duration of inhibition of HSV-1 release after a single application” value with HSV-1 was “began to fall off after 48 h”.

A word on the EC50: it is the concentration needed to bring the measured effect to its halfway point.
